From patent publication US20250163038A1, “CBL-B MODULATORS AND USES THEREOF” (Nimbus Clio, Inc., priority 2021, published 2025)

Key:
[1] = system: Jurkat (clone E6-1) cells with NFAT luciferase reporter; assay: Jurkat reporter assay (NFAT Luciferase); assay type: cell-based; conditions: Homo sapiens; Jurkat NFAT luciferase reporter cells, anti-CD3 stimulation, 6 hr; read-out: Jurkat NFAT EC50
[2] = molecular target: Recombinant human Cbl-b (aa 36-427) (Homo sapiens, UniProt Q13191); assay: Cbl-b Biochemical Assay (TR-FRET); conditions: read-out: TR-FRET hCbl-b IC50
[3] = molecular target: T1, Recombinant human c-Cbl (aa 47-435) (Homo sapiens, UniProt P22681); assay: c-Cbl Biochemical Assay (TR-FRET); conditions: hc-Cbl Biochemical Assay (TR-FRET); read-out: TR-FRET hcCbl IC50
T1 sequence (P22681 47-435): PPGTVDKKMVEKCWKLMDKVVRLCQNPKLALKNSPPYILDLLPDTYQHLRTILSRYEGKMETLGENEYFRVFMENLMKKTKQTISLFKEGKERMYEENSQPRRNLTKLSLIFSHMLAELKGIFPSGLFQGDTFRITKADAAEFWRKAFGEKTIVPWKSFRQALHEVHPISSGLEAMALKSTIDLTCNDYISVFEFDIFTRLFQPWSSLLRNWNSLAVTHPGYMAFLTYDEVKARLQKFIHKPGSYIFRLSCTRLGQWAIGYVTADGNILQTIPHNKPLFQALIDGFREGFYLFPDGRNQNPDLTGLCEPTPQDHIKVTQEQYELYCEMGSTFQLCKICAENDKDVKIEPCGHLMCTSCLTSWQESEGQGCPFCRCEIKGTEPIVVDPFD

Recombinant human Cbl-b (aa 36-427), sequence (Q13191 36-427): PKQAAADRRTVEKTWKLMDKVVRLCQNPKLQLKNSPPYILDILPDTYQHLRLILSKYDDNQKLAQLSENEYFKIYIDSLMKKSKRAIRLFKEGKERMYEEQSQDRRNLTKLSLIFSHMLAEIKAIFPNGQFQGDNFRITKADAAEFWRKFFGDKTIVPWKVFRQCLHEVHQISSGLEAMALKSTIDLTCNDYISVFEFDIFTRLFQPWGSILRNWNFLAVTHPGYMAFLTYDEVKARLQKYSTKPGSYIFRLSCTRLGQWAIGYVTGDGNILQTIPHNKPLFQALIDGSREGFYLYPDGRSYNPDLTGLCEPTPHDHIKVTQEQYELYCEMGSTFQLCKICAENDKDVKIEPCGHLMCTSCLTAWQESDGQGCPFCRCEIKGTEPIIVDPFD

Row | EC50 [1] | IC50 [2] | IC50 [3] | SMILES
1 | < 200 nM | < 200 nM | < 200 nM | Cn1cnnc1-c1cc(F)ccc1-c1cccc(-c2nc3cc(CNCC4COC4)cc(C(F)(F)F)c3o2)c1 [GB-2, 1-(2-(4′-Fluoro-2′-(4-methyl-4H-1,2,4-triazol-3-yl)-[1,1′-biphenyl]-3-yl)-7-(trifluoromethyl)benzo[d]oxazol-5-yl)-N-(oxetan-3-ylmethyl)methanamine]
2 | < 200 nM | < 200 nM | < 200 nM | Cn1cnnc1-c1cc(F)ccc1-c1cccc(-c2nc3cc(CNC4CCC4)cc(C(F)(F)F)c3o2)c1 [GC-2, N-((2-(4′-Fluoro-2′-(4-methyl-4H-1,2,4-triazol-3-yl)-[1,1′-biphenyl]-3-yl)-7-(trifluoromethyl)benzo[d]oxazol-5-yl)methyl)cyclobutanamine]
3 | 200 to 1000 nM | < 200 nM | 200 to 1000 nM | CCOCCNCc1cc(OC)c2oc(-c3cccc(-c4ccc(F)cc4-c4nncn4C)c3)nc2c1 [GD-1, 2-Ethoxy-N-((2-(4′-fluoro-2′-(4-methyl-4H-1,2,4-triazol-3-yl)-[1,1′-biphenyl]-3-yl)-7-methoxybenzo[d]oxazol-5-yl)methyl)ethan-1-amine]
4 | 1000 to 10000 nM | < 200 nM | 200 to 1000 nM | COc1cc(CNCCOC(C)C)cc2nc(-c3cccc(-c4ccc(F)cc4-c4nncn4C)c3)oc12 [GE-2, N-((2-(4′-Fluoro-2′-(4-methyl-4H-1,2,4-triazol-3-yl)-[1,1′-biphenyl]-3-yl)-7-methoxybenzo[d]oxazol-5-yl)methyl)-2-isopropoxyethan-1-amine, formic Acid]
5 | < 200 nM | < 200 nM | < 200 nM | COc1cc(CN[C@@H](C)C2CCC2)cc2nc(-c3cccc(-c4ccc(F)cc4-c4nncn4C)c3)oc12 [GF-2, (S)-1-Cyclobutyl-N-((2-(4′-fluoro-2′-(4-methyl-4H-1,2,4-triazol-3-yl)-[1,1′-biphenyl]-3-yl)-7-methoxybenzo[d]oxazol-5-yl)methyl)ethan-1-amine]
6 | 200 to 1000 nM | < 200 nM | < 200 nM | COc1cc(CNCCC2CCC2)cc2nc(-c3cccc(-c4ccc(F)cc4-c4nncn4C)c3)oc12 [GG-2, 2-Cyclobutyl-N-((2-(4′-fluoro-2′-(4-methyl-4H-1,2,4-triazol-3-yl)-[1,1′-biphenyl]-3-yl)-7-methoxybenzo[d]oxazol-5-yl)methyl)ethan-1-amine]
7 | 200 to 1000 nM | < 200 nM | 200 to 1000 nM | COc1cc(CNC2CCC2)cc2nc(-c3cccc(-c4ccc(F)cc4-c4nncn4C)c3)oc12 [GH-1, N-((2-(4′-Fluoro-2′-(4-methyl-4H-1,2,4-triazol-3-yl)-[1,1′-biphenyl]-3-yl)-7-methoxybenzo[d]oxazol-5-yl)methyl)cyclobutanamine]
8 | 1000 to 10000 nM | 200 to 1000 nM | 200 to 1000 nM | COc1cc(CN[C@@H]2CCC[C@]2(C)O)cc2nc(-c3cccc(-c4ccc(F)cc4-c4nncn4C)c3)oc12 [GI-2, (1S,2R)-2-(((2-(4′-Fluoro-2′-(4-methyl-4H-1,2,4-triazol-3-yl)-[1,1′-biphenyl]-3-yl)-7-methoxybenzo[d]oxazol-5-yl)methyl)amino)-1-methylcyclopentan-1-ol, Formic Acid]
9 | 1000 to 10000 nM | 200 to 1000 nM | 200 to 1000 nM | COc1cc(CN[C@@H]2CCC[C@@]2(C)O)cc2nc(-c3cccc(-c4ccc(F)cc4-c4nncn4C)c3)oc12 [GJ-2, (1R,2R)-2-(((2-(4′-fluoro-2′-(4-methyl-4H-1,2,4-triazol-3-yl)-[1,1′-biphenyl]-3-yl)-7-methoxybenzo[d]oxazol-5-yl)methyl)amino)-1-methylcyclopentan-1-ol, Formic Acid]
10 | 1000 to 10000 nM | < 200 nM | 200 to 1000 nM | Cn1cnnc1-c1cc(F)ccc1-c1cccc(-c2nc3ccc(CN[C@@H]4CCC[C@@H]4O)cn3n2)c1 [GK-5, (1S,2R)-2-(((2-(4′-Fluoro-2′-(4-methyl-4H-1,2,4-triazol-3-yl)-[1,1′-biphenyl]-3-yl)-[1,2,4]triazolo[1,5-a]pyridin-6-yl)methyl)amino)cyclopentan-1-ol, Formic Acid]
11 | 10000 to 50000 nM | 1000 to 10000 nM | 1000 to 10000 nM | Cn1cnnc1-c1cc(F)ccc1-c1cccc(-c2cn3cc(CN[C@@H]4CCC[C@@H]4O)ccc3n2)c1 [GL-2, (1S,2R)-2-(((2-(4′-fluoro-2′-(4-methyl-4H-1,2,4-triazol-3-yl)-[1,1′-biphenyl]-3-yl)imidazo[1,2-a]pyridin-6-yl)methyl)amino)cyclopentan-1-ol]
12 | 10000 to 50000 nM | 200 to 1000 nM | 1000 to 10000 nM | COCCN(C)Cc1cc(OC)c2oc(-c3cccc(-c4ccc(F)cc4-c4nncn4C)c3)nc2c1 [GM-2, N-((2-(4′-Fluoro-2′-(4-methyl-4H-1,2,4-triazol-3-yl)-[1,1′-biphenyl]-3-yl)-7-methoxybenzo[d]oxazol-5-yl)methyl)-2-methoxy-N-methylethan-1-amine]
13 | 10000 to 50000 nM | 10000 to 50000 nM | 10000 to 50000 nM | Cn1cnnc1-c1cc(F)ccc1-c1cccc(-c2cn3ccc(CO)cc3n2)c1 [GN-5, (2-(4′-Fluoro-2′-(4-methyl-4H-1,2,4-triazol-3-yl)-[1,1′-biphenyl]-3-yl)imidazo[1,2-a]pyridin-7-yl)methanol]
14 | 200 to 1000 nM | < 200 nM | < 200 nM | Cn1cnnc1-c1cc(F)ccc1-c1cccc(-c2cn3ccc(CN[C@@H]4CCC[C@@H]4O)cc3n2)c1 [GO-2, (1S,2R)-2-(((2-(4′-Fluoro-2′-(4-methyl-4H-1,2,4-triazol-3-yl)-[1,1′-biphenyl]-3-yl)imidazo[1,2-a]pyridin-7-yl)methyl)amino)cyclopentan-1-ol]
15 | 200 to 1000 nM | < 200 nM | < 200 nM | Cn1cnnc1-c1cc(F)ccc1-c1cccc(-c2nc3cc(CN[C@@H]4C[C@H](O)C4(C)C)cc(C(F)(F)F)c3o2)c1 [GP-2, (1S,3R)-3-(((2-(4′-Fluoro-2′-(4-methyl-4H-1,2,4-triazol-3-yl)-[1,1′-biphenyl]-3-yl)-7-(trifluoromethyl)benzo[d]oxazol-5-yl)methyl)amino)-2,2-dimethylcyclobutan-1-ol, Formic Acid]
16 | < 200 nM | < 200 nM | < 200 nM | Cc1cc(CNCC2CCC2)cc2nc(-c3cccc(-c4ccc(F)cc4-c4nncn4C)c3)oc12 [GU-1, 1-Cyclobutyl-N-((2-(4′-fluoro-2′-(4-methyl-4H-1,2,4-triazol-3-yl)-[1,1′-biphenyl]-3-yl)-7-methylbenzo[d]oxazol-5-yl)methyl)methanamine]
17 | 200 to 1000 nM | < 200 nM | 200 to 1000 nM | COCCNCc1cc(C)c2oc(-c3cccc(-c4ccc(F)cc4-c4nncn4C)c3)nc2c1 [GV-1, N-((2-(4′-Fluoro-2′-(4-methyl-4H-1,2,4-triazol-3-yl)-[1,1′-biphenyl]-3-yl)-7-methylbenzo[d]oxazol-5-yl)methyl)-2-methoxyethan-1-amine]
18 | < 200 nM | < 200 nM | < 200 nM | C[C@H](NCc1cc(C(F)(F)F)c2oc(-c3cccc(-c4ccc(F)cc4-c4nncn4C)c3)nc2c1)C1CCC1 [GW-2, (S)-1-Cyclobutyl-N-((2-(4′-fluoro-2′-(4-methyl-4H-1,2,4-triazol-3-yl)-[1,1′-biphenyl]-3-yl)-7-(trifluoromethyl)benzo[d]oxazol-5-yl)methyl)ethan-1-amine]
19 | 1000 to 10000 nM | < 200 nM | 200 to 1000 nM | COc1cc(CN[C@H]2C[C@@H](O)C2)cc2nc(-c3cccc(-c4ccc(F)cc4-c4nncn4C)c3)oc12 [GX-1, (1S,3S)-3-(((2-(4′-Fluoro-2′-(4-methyl-4H-1,2,4-triazol-3-yl)-[1,1′-biphenyl]-3-yl)-7-methoxybenzo[d]oxazol-5-yl)methyl)amino)cyclobutan-1-ol]
20 | 10000 to 50000 nM | 200 to 1000 nM | 1000 to 10000 nM | COc1cc(CN[C@H]2C[C@H](O)C2)cc2nc(-c3cccc(-c4ccc(F)cc4-c4nncn4C)c3)oc12 [GY-1, (1R,3R)-3-(((2-(4′-Fluoro-2′-(4-methyl-4H-1,2,4-triazol-3-yl)-[1,1′-biphenyl]-3-yl)-7-methoxybenzo[d]oxazol-5-yl)methyl)amino)cyclobutan-1-ol]
21 | 200 to 1000 nM | < 200 nM | 200 to 1000 nM | COc1cc(CNCC2COC2)cc2nc(-c3cccc(-c4ccc(F)cc4-c4nncn4C)c3)oc12 [GZ-1, 1-(2-(4′-Fluoro-2′-(4-methyl-4H-1,2,4-triazol-3-yl)-[1,1′-biphenyl]-3-yl)-7-methoxybenzo[d]oxazol-5-yl)-N-(oxetan-3-ylmethyl)methanamine]
22 | < 200 nM | < 200 nM | < 200 nM | [2H]C([2H])(N[C@@H]1CCC[C@@H]1O)c1cc(C(F)(F)F)c2oc(-c3cccc(-c4ccc(F)cc4-c4nncn4C)c3)nc2c1 [HA-3, (1S,2R)-2-(((2-(4′-Fluoro-2′-(4-methyl-4H-1,2,4-triazol-3-yl)-[1,1′-biphenyl]-3-yl)-7-(trifluoromethyl)benzo[d]oxazol-5-yl)methyl-d2)amino)cyclopentan-1-ol]
23 | < 200 nM | < 200 nM | < 200 nM | [2H]C([2H])(NCC1(O)CCC1)c1cc(C(F)(F)F)c2oc(-c3cccc(-c4ccc(F)cc4-c4nncn4C)c3)nc2c1 [HB-1, 1-((((2-(4′-Fluoro-2′-(4-methyl-4H-1,2,4-triazol-3-yl)-[1,1′-biphenyl]-3-yl)-7-(trifluoromethyl)benzo[d]oxazol-5-yl)methyl-d2)amino)methyl)cyclobutan-1-ol]
